Source: PubChem BioAssay (NCI)
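In this assay, cells in 96-well plates receive the compound at five concentrations for 48 hours. Endpoints are linearly interpolated between the surrounding concentrations. GI50 = concentration required for 50% inhibition of growth. The concentration for full growth arrest is given as TGI.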

How the values were obtained:
Experiment in all cases: inhibition of tumour cell growth, NCI panel, 48 h
[1] = test system: 786-0 renal
[2] = test system: A498 renal
[3] = test system: A549 NSCLC
[4] = test system: ACHN renal
[5] = test system: BT-549 breast
[6] = test system: CAKI-1 renal
[7] = test system: CCRF-CEM leukemia
[8] = test system: COLO 205 colon
[9] = test system: DU-145 prostate
[10] = test system: EKVX NSCLC
[11] = test system: HCC-2998 colon
[12] = test system: HCT-116 colon
[13] = test system: HCT-15 colon
[14] = test system: HL-60(TB) leukemia
[15] = test system: HOP-62 NSCLC
[16] = test system: HOP-92 NSCLC
[17] = test system: HS 578T breast
[18] = test system: HT29 colon
[19] = test system: IGROV1 ovarian
[20] = test system: K-562 leukemia
[21] = test system: KM12 colon
[22] = test system: LOX IMVI melanoma
[23] = test system: M14 melanoma
[24] = test system: MALME-3M melanoma
[25] = test system: MCF7 breast
[26] = test system: MDA-MB-231 breast
[27] = test system: MDA-MB-435
[28] = test system: MDA-MB-468 breast
[29] = test system: MOLT-4 leukemia
[30] = test system: NCI-H226 lung
[31] = test system: NCI-H23 lung
[32] = test system: NCI-H460 lung
[33] = test system: NCI-H522 lung
[34] = test system: OVCAR-3 ovarian
[35] = test system: OVCAR-4 ovarian
[36] = test system: OVCAR-5 ovarian
[37] = test system: OVCAR-8 ovarian
[38] = test system: PC-3 prostate
[39] = test system: RPMI-8226 leukemia
[40] = test system: RXF 393 renal
[41] = test system: SF-268 CNS
[42] = test system: SF-295 CNS
[43] = test system: SF-539 CNS
[44] = test system: SK-MEL-2 melanoma
[45] = test system: SK-MEL-28 melanoma
[46] = test system: SK-MEL-5 melanoma
[47] = test system: SK-OV-3 ovarian
[48] = test system: SN12C renal
[49] = test system: SNB-19 CNS
[50] = test system: SNB-75 CNS
[51] = test system: SR leukemia
[52] = test system: SW-620 colon
[53] = test system: T-47D breast
[54] = test system: TK-10 renal
[55] = test system: U251 CNS
[56] = test system: UACC-257 melanoma
[57] = test system: UACC-62 melanoma
[58] = test system: UO-31 renal

SMILES: O=C(c1ccc(O)cc1)C1[C@H](c2ccc(Br)cc2)[C@@H](c2ccccc2)NC12C(=O)Nc1ccccc12 (stereo partly specified)
- GI50 [1]: 5.83 µM
- TGI [1]: 11.2 µM
- GI50 [2]: 5.83 µM
- TGI [2]: 11.3 µM
- GI50 [3]: 4.84 µM
- TGI [3]: 10.2 µM
- GI50 [4]: 5.69 µM
- TGI [4]: 10.8 µM
- GI50 [5]: 6.02 µM
- TGI [5]: 11.4 µM
- GI50 [6]: 4.67 µM
- TGI [6]: 9.8 µM
- GI50 [7]: 7.07 µM
- TGI [7]: 16.1 µM
- GI50 [8]: 6.88 µM
- TGI [8]: 14.1 µM
- GI50 [9]: 6.85 µM
- TGI [9]: 12.9 µM
- GI50 [10]: 5.92 µM
- TGI [10]: 14 µM
- GI50 [11]: 5.87 µM
- TGI [11]: 11.4 µM
- GI50 [12]: 5.51 µM
- TGI [12]: 10.8 µM
- GI50 [13]: 6.17 µM
- TGI [13]: 13 µM
- GI50 [14]: 7.46 µM
- TGI [14]: 18.9 µM
- GI50 [15]: 5.88 µM
- TGI [15]: 11.5 µM
- GI50 [16]: 5.36 µM
- TGI [16]: 10.9 µM
- GI50 [17]: 6.63 µM
- TGI [17]: 15.9 µM
- GI50 [18]: 5.87 µM
- TGI [18]: 12 µM
- GI50 [19]: 5.21 µM
- TGI [19]: 10.4 µM
- GI50 [20]: 8.24 µM
- TGI [20]: 21.8 µM
- GI50 [21]: 6.31 µM
- TGI [21]: 12.6 µM
- GI50 [22]: 4.93 µM
- TGI [22]: 10.6 µM
- GI50 [23]: 5.63 µM
- TGI [23]: 11.3 µM
- GI50 [24]: 5.75 µM
- TGI [24]: 10.9 µM
- GI50 [25]: 6.41 µM
- TGI [25]: 15.4 µM
- GI50 [26]: 4.93 µM
- TGI [26]: 9.87 µM
- GI50 [27]: 6.53 µM
- TGI [27]: 12.3 µM
- GI50 [28]: 6.1 µM
- TGI [28]: 12.2 µM
- GI50 [29]: 3.99 µM
- TGI [29]: 13.4 µM
- GI50 [30]: 5.31 µM
- TGI [30]: 11 µM
- GI50 [31]: 6.38 µM
- TGI [31]: 12.6 µM
- GI50 [32]: 6.08 µM
- TGI [32]: 11.9 µM
- GI50 [33]: 5.82 µM
- TGI [33]: 11.7 µM
- GI50 [34]: 6.51 µM
- TGI [34]: 12 µM
- GI50 [35]: 6.21 µM
- TGI [35]: 12.9 µM
- GI50 [36]: 5.67 µM
- TGI [36]: 10.8 µM
- GI50 [37]: 6.28 µM
- TGI [37]: 12.2 µM
- GI50 [38]: 5.09 µM
- TGI [38]: 12.3 µM
- GI50 [39]: 7.97 µM
- TGI [39]: 25.2 µM
- GI50 [40]: 5.29 µM
- TGI [40]: 10.5 µM
- GI50 [41]: 5.73 µM
- TGI [41]: 12.5 µM
- GI50 [42]: 5.93 µM
- TGI [42]: 11.3 µM
- GI50 [43]: 6.41 µM
- TGI [43]: 11.7 µM
- GI50 [44]: 6.14 µM
- TGI [44]: 11.5 µM
- GI50 [45]: 6.21 µM
- TGI [45]: 11.5 µM
- GI50 [46]: 6.6 µM
- TGI [46]: 12.1 µM
- GI50 [47]: 6.67 µM
- TGI [47]: 13.3 µM
- GI50 [48]: 5.69 µM
- TGI [48]: 10.8 µM
- GI50 [49]: 5.92 µM
- TGI [49]: 11.1 µM
- GI50 [50]: 4.21 µM
- TGI [50]: 11.7 µM
- GI50 [51]: 5.18 µM
- TGI [51]: 12.6 µM
- GI50 [52]: 6.63 µM
- TGI [52]: 12.9 µM
- GI50 [53]: 5.14 µM
- TGI [53]: 12.2 µM
- GI50 [54]: 5.68 µM
- TGI [54]: 11.3 µM
- GI50 [55]: 6.19 µM
- TGI [55]: 11.6 µM
- GI50 [56]: 6.1 µM
- TGI [56]: 11.8 µM
- GI50 [57]: 5.13 µM
- TGI [57]: 10.1 µM
- GI50 [58]: 3.99 µM
- TGI [58]: 8.53 µM
